According to ChEMBL document CHEMBL4138236, “Trisubstituted barbiturates and thiobarbiturates: Synthesis and biological evaluation as xanthine oxidase inhibitors, antioxidants, antibacterial and anti-proliferative agents” (Eur J Med Chem, 2018):
≈ marks a conversion by molar mass, not a printed value.

Columns and labels:
Salmonella typhimurium = assay: Antibacterial activity against Salmonella typhimurium ATCC 13311 after 24 hrs by broth microdilution method; format: functional, Salmonella enterica subsp. enterica serovar Typhimurium; conditions: Salmonella enterica, ATCC 13311, 24 h
Escherichia coli = assay: Antibacterial activity against Escherichia coli ATCC 25922 after 24 hrs by broth microdilution method; format: functional; conditions: ATCC 25922, 24 h
[1] = Antioxidant activity assessed as DPPH radical scavenging activity at 30 uM after 60 mins by spectrophotometric method relative to control; format: functional
MCF7 [2] = assay: Antiproliferative activity against human MCF7 cells at 30 uM after 72 hrs by MTT assay relative to control; format: functional
[3] = Antioxidant activity assessed as DPPH radical scavenging activity after 20 mins by spectrophotometric method; format: functional
Acinetobacter baumannii = assay: Antibacterial activity against Acinetobacter baumannii LMG 1025 after 24 hrs by broth microdilution method; format: functional; conditions: LMG 1025, 24 h
[4] = Antioxidant activity assessed as DPPH radical scavenging activity after 60 mins by spectrophotometric method; format: functional
NHDF [5] = assay: Antiproliferative activity against NHDF at 30 uM after 72 hrs by MTT assay relative to control; format: cell-based; conditions: human
Klebsiella pneumoniae = assay: Antibacterial activity against Klebsiella pneumoniae ATCC 13883 after 24 hrs by broth microdilution method; format: functional; conditions: ATCC 13883, 24 h
Staphylococcus aureus = assay: Antibacterial activity against Staphylococcus aureus ATCC 25923 after 24 hrs by broth microdilution method; format: functional; conditions: ATCC 25923, 24 h
[6] = Antioxidant activity assessed as DPPH radical scavenging activity at 30 uM after 20 mins by spectrophotometric method relative to control; format: functional
Pseudomonas aeruginosa = assay: Antibacterial activity against Pseudomonas aeruginosa ATCC 27853 after 24 hrs by broth microdilution method; format: functional; conditions: ATCC 27853, 24 h
Bacillus cereus = assay: Antibacterial activity against Bacillus cereus ATCC 1178 after 24 hrs by broth microdilution method; format: functional; conditions: ATCC 1178, 24 h
MCF7 [7] = assay: cells; conditions: Homo sapiens, MCF7, 72 h
NHDF [8] = assay: Antiproliferative activity against NHDF after 72 hrs by MTT assay; format: cell-based; conditions: Homo sapiens

CC(NNc1ccc([N+](=O)[O-])cc1)=C1C(=O)N(C)C(=O)N(C)C1=O
MIC (Salmonella typhimurium): > 200 µM
MIC (Escherichia coli): > 200 µM
Activity [1]: 76%
Activity (MCF7 [2]): 76.99%
IC50 [3]: 23.9 µM
MIC (Acinetobacter baumannii): 12.5 µM (≈ 4.17 µg/mL)
IC50 [4]: 23.8 µM
Activity (NHDF [5]): 77.63%
MIC (Klebsiella pneumoniae): > 200 µM
MIC (Staphylococcus aureus): > 200 µM
Activity [6]: 71.2%
MIC (Pseudomonas aeruginosa): > 200 µM
MIC (Bacillus cereus): > 200 µM

CC(NNc1ccccc1)=C1C(=O)NC(=O)NC1=O
MIC (Salmonella typhimurium): > 200 µM
MIC (Escherichia coli): > 200 µM
Activity [1]: 78.1%
Activity (MCF7 [2]): 40.24%
IC50 [3]: 23.9 µM
MIC (Acinetobacter baumannii): 25 µM (≈ 6.51 µg/mL)
IC50 [4]: 20.4 µM
Activity (NHDF [5]): 74.87%
MIC (Klebsiella pneumoniae): > 200 µM
MIC (Staphylococcus aureus): > 200 µM
Activity [6]: 77.1%
MIC (Pseudomonas aeruginosa): > 200 µM
MIC (Bacillus cereus): > 200 µM

O=C1NC(=S)NC(=O)C1=CNc1ccc([N+](=O)[O-])cc1Cl
MIC (Salmonella typhimurium): > 200 µM
MIC (Escherichia coli): > 200 µM
IC50 (MCF7 [7]): 13.2 µM
Activity [1]: 0.5%
Activity (MCF7 [2]): 32.43%
MIC (Acinetobacter baumannii): > 200 µM
Activity (NHDF [5]): 76.01%
MIC (Klebsiella pneumoniae): > 200 µM
MIC (Staphylococcus aureus): > 200 µM
Activity [6]: 0.91%
MIC (Pseudomonas aeruginosa): > 200 µM
MIC (Bacillus cereus): > 200 µM

NC(=O)NC=C1C(=O)NC(=S)NC1=O
MIC (Salmonella typhimurium): > 200 µM
MIC (Escherichia coli): > 200 µM
Activity [1]: 5.6%
Activity (MCF7 [2]): 104.66%
MIC (Acinetobacter baumannii): > 200 µM
Activity (NHDF [5]): 74.57%
MIC (Klebsiella pneumoniae): > 200 µM
MIC (Staphylococcus aureus): > 200 µM
Activity [6]: 5.26%
MIC (Pseudomonas aeruginosa): > 200 µM
MIC (Bacillus cereus): > 200 µM

O=C1NC(=S)NC(=O)C1=Cc1ccccc1[N+](=O)[O-]
MIC (Salmonella typhimurium): > 200 µM
MIC (Escherichia coli): > 200 µM
Activity [1]: -0.23%
Activity (MCF7 [2]): 56.35%
MIC (Acinetobacter baumannii): > 200 µM
Activity (NHDF [5]): 81.31%
MIC (Klebsiella pneumoniae): > 200 µM
MIC (Staphylococcus aureus): > 200 µM
Activity [6]: -2.2%
MIC (Pseudomonas aeruginosa): > 200 µM
MIC (Bacillus cereus): > 200 µM

CN1C(=O)C(=CNc2ccccc2C(=O)O)C(=O)N(C)C1=O
MIC (Salmonella typhimurium): > 200 µM
MIC (Escherichia coli): > 200 µM
Activity [1]: 1.98%
Activity (MCF7 [2]): 50.34%
MIC (Acinetobacter baumannii): > 200 µM
Activity (NHDF [5]): 71.19%
MIC (Klebsiella pneumoniae): > 200 µM
MIC (Staphylococcus aureus): > 200 µM
Activity [6]: 3.37%
MIC (Pseudomonas aeruginosa): > 200 µM
MIC (Bacillus cereus): > 200 µM

CC(NNc1ccccc1)=C1C(=O)N(C)C(=O)N(C)C1=O
MIC (Salmonella typhimurium): > 200 µM
MIC (Escherichia coli): > 200 µM
Activity [1]: 76.7%
Activity (MCF7 [2]): 57.38%
IC50 [3]: 22.6 µM
MIC (Acinetobacter baumannii): 25 µM (≈ 7.21 µg/mL)
IC50 [4]: 18.8 µM
Activity (NHDF [5]): 65.56%
MIC (Klebsiella pneumoniae): > 200 µM
MIC (Staphylococcus aureus): > 200 µM
Activity [6]: 77.1%
MIC (Pseudomonas aeruginosa): > 200 µM
MIC (Bacillus cereus): > 200 µM
IC50 (NHDF [8]): 82 µM

Cc1c(C)c2c(c(C)c1O)CCC(C)(C(=O)O)O2 (stereo unspecified) [TROLOX]
Activity [1]: 70.3%
IC50 [3]: 33.8 µM
IC50 [4]: 35.9 µM
Activity [6]: 70%

COc1ccc(CC2C(=O)NC(=O)NC2=O)cc1
MIC (Salmonella typhimurium): > 200 µM
MIC (Escherichia coli): > 200 µM
Activity [1]: 14%
Activity (MCF7 [2]): 73.12%
MIC (Acinetobacter baumannii): > 200 µM
Activity (NHDF [5]): 60.77%
MIC (Klebsiella pneumoniae): > 200 µM
MIC (Staphylococcus aureus): > 200 µM
Activity [6]: 10.4%
MIC (Pseudomonas aeruginosa): > 200 µM
MIC (Bacillus cereus): > 200 µM

Cn1c([O-])c(C(C#N)c2ccc(Br)cc2)c(=O)n(C)c1=O.[Na+] (stereo unspecified)
MIC (Salmonella typhimurium): > 200 µM
MIC (Escherichia coli): > 200 µM
Activity [1]: 1.2%
Activity (MCF7 [2]): 79.47%
MIC (Acinetobacter baumannii): > 200 µM
Activity (NHDF [5]): 80.09%
MIC (Klebsiella pneumoniae): > 200 µM
MIC (Staphylococcus aureus): > 200 µM
Activity [6]: 0.45%
MIC (Pseudomonas aeruginosa): > 200 µM
MIC (Bacillus cereus): > 200 µM

NC(=O)NC=C1C(=O)NC(=O)NC1=O
MIC (Salmonella typhimurium): > 200 µM
MIC (Escherichia coli): > 200 µM
Activity [1]: -5.32%
Activity (MCF7 [2]): 55.71%
MIC (Acinetobacter baumannii): > 200 µM
Activity (NHDF [5]): 78.89%
MIC (Klebsiella pneumoniae): > 200 µM
MIC (Staphylococcus aureus): > 200 µM
Activity [6]: -5.19%
MIC (Pseudomonas aeruginosa): > 200 µM
MIC (Bacillus cereus): > 200 µM

O=C1NC(=S)NC(=O)C1=CNc1ccccc1Cl
MIC (Salmonella typhimurium): > 200 µM
MIC (Escherichia coli): > 200 µM
Activity [1]: 0.92%
Activity (MCF7 [2]): 47.17%
MIC (Acinetobacter baumannii): > 200 µM
Activity (NHDF [5]): 65.67%
MIC (Klebsiella pneumoniae): > 200 µM
MIC (Staphylococcus aureus): > 200 µM
Activity [6]: 1.12%
MIC (Pseudomonas aeruginosa): > 200 µM
MIC (Bacillus cereus): > 200 µM

CC(=O)C1C(=O)NC(=O)NC1=O
MIC (Salmonella typhimurium): > 200 µM
MIC (Escherichia coli): > 200 µM
Activity [1]: -7.28%
Activity (MCF7 [2]): 80.64%
MIC (Acinetobacter baumannii): > 200 µM
Activity (NHDF [5]): 124.84%
MIC (Klebsiella pneumoniae): > 200 µM
MIC (Staphylococcus aureus): > 200 µM
Activity [6]: -6.91%
MIC (Pseudomonas aeruginosa): > 200 µM
MIC (Bacillus cereus): > 200 µM

O=c1[nH]cc(F)c(=O)[nH]1 [FLUOROURACIL]
IC50 (MCF7 [7]): 2.35 µM
Activity (MCF7 [2]): 11.88%
Activity (NHDF [5]): 58.31%
IC50 (NHDF [8]): 7.38 µM

NC(=S)NC=C1C(=O)NC(=S)NC1=O
MIC (Salmonella typhimurium): > 200 µM
MIC (Escherichia coli): > 200 µM
Activity [1]: 4.18%
Activity (MCF7 [2]): 111.15%
MIC (Acinetobacter baumannii): > 200 µM
Activity (NHDF [5]): 83.56%
MIC (Klebsiella pneumoniae): > 200 µM
MIC (Staphylococcus aureus): > 200 µM
Activity [6]: 3.37%
MIC (Pseudomonas aeruginosa): > 200 µM
MIC (Bacillus cereus): > 200 µM

NC(S)=NC=C1C(=O)NC(=O)NC1=O
MIC (Salmonella typhimurium): > 200 µM
MIC (Escherichia coli): > 200 µM
Activity [1]: 16.6%
Activity (MCF7 [2]): 71.09%
MIC (Acinetobacter baumannii): > 200 µM
Activity (NHDF [5]): 78.05%
MIC (Klebsiella pneumoniae): > 200 µM
MIC (Staphylococcus aureus): > 200 µM
Activity [6]: 6.73%
MIC (Pseudomonas aeruginosa): > 200 µM
MIC (Bacillus cereus): > 200 µM

CC(=O)C1C(=O)N(c2ccccc2)C(=S)N(c2ccccc2)C1=O
MIC (Salmonella typhimurium): > 200 µM
MIC (Escherichia coli): > 200 µM
Activity [1]: -7.43%
Activity (MCF7 [2]): 75.32%
MIC (Acinetobacter baumannii): > 200 µM
Activity (NHDF [5]): 89.63%
MIC (Klebsiella pneumoniae): > 200 µM
MIC (Staphylococcus aureus): > 200 µM
Activity [6]: -8.55%
MIC (Pseudomonas aeruginosa): > 200 µM
MIC (Bacillus cereus): > 200 µM
